Assay [1] deals with T1, human RORγt ligand binding domain (RORγt LBD) (Homo sapiens, UniProt P51449).
T1 construct: His-tag (N); TurboTEV protease cleavage site (ENLYFQG) (N); made in house; host or cells: E. coli (pHIS1, a modified pET expression vector)
T1 sequence (P51449 with tags, fused parts or gaps): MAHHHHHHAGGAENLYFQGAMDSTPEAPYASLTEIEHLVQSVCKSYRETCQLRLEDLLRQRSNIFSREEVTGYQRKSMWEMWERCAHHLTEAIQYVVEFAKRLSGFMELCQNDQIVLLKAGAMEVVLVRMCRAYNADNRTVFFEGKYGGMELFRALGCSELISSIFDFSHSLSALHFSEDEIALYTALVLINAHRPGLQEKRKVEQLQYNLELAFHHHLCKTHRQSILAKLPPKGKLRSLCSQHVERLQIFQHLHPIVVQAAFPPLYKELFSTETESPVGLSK
The assay can be described thus: RORγt ThermoFluor assay. Particulars: estimated from thermal shift concentration response. The method, then: This approach is applicable to a wide variety of systems, and rigorous in theoretical interpretation through quantitation of equilibrium binding constants (KD).
The shift in the melting point described as a ΔTm is proportional to the concentration and affinity of the ligand.
Protein and compound solutions are dispensed into black 384-well polypropylene PCR microplates (Abgene) and overlayed with silicone oil (1 μL, Fluka, type DC 200) to prevent evaporation.
Bar-coded assay plates are robotically loaded onto a thermostatically controlled PCR-type thermal block and then heated at a typical ramp-rate of 1° C./min for all experiments.
Fluorescence was measured by continuous illumination with UV light (Hamamatsu LC6) supplied via fiber optic and filtered through a band-pass filter (380-400 nm; >6 OD cutoff). Fluorescence emission of the entire 384-well plate was detected by measuring light intensity using a CCD camera (Sensys, Roper Scientific) filtered to detect 500±25 nm, resulting in simultaneous and independent readings of all 384 wells. Images were collected at each temperature, and the sum of the pixel intensity in a given area of the assay plate was recorded versus temperature. Reference wells contained RORγt without compounds, and the assay conditions were as follows: • 0.065 mg/mL RORγt • 60 μM 1,8-ANS • 100 mM Hepes, pH 7.0 • 10 mM NaCl • 2.5 mM GSH • 0.002% Tween-20
Project compounds were arranged in a pre-dosed mother plate (Greiner Bio-one) wherein compounds are serially diluted in 100% DMSO by 1:2 from a high concentration of 10 mM over 12 columns within a series (column 12 is a reference well containing DMSO, no compound). The compounds were robotically dispensed directly into assay plates (1×=46 nL) using a Hummingbird capillary liquid handling instrument (Digilab). Following compound dispense, protein and dye in buffer was added to achieve the final assay volume of 3 μL, followed by 1 μL of silicone oil.

The next assay concerns the target T2, full-length human RORγt (Homo sapiens, UniProt P51449).
T2 construct: expressed in transfected cells; host or cells: HEK293T, transiently transfected with pCMV-BD-ROR
T2 sequence (P51449 1-497 isoform P51449-2): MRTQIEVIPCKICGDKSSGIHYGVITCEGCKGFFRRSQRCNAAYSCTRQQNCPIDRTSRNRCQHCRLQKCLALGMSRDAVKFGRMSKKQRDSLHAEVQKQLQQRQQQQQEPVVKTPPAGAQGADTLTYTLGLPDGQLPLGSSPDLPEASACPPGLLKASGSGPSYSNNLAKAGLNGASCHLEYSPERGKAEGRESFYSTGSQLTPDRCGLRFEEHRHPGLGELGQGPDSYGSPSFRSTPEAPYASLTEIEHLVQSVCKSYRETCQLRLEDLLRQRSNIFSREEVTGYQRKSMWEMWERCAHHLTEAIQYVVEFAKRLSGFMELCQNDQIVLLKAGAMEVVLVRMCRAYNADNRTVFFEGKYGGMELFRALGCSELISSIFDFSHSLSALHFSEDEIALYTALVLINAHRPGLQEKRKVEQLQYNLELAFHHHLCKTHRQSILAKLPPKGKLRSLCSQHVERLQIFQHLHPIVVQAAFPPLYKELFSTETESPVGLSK
The experiment in a line: RORγt (full-length human) Reporter Assay, Conditions A. The class given is cell-based. Particulars: for IC50: HEK293T cells, GAL4-DBD-RORγt, luciferase, read-out: RORγt (FL) Reporter Assay A, IC50; for inhibition at 2 µM: read-out: RORγt (FL) Reporter Assay A, % inhibition (* at 2 μM), 2 μM compound concentration (footnote *); for inhibition at 6 µM: read-out: RORγt (FL) Reporter Assay A, % inhibition @ 6 μM, 6 μM compound. The method, then: After overnight (16 to 20 hours) incubation, media were removed and cells were lysed with 20 μL 1× Passive Lysis Buffer (Promega) for 10-15 minutes. Luminescence was measured using a BMG LUMIstar OPTIMA plate reader, after addition of 75 μL/well firefly luciferase buffer, followed by 75 μL/well Renilla luciferase buffer. To calculate the effect of compounds on RORγt activity, firefly values were normalized against values of DMSO only and values of reference compound at saturating concentration, then further normalized against Renilla signals. IC50s were generated by plotting final Renilla normalized data against compound concentration and percent inhibition was calculated against DMSO control.

The text below walks through data of patent US9845319B2, “Amide substituted thiazoles as modulators of RORyt” (Janssen Pharmaceutica NV, priority 2014, dated 2017).

What is called Kd is the concentration at which binding is half-saturated. As a reminder, the IC50 is the concentration that gives 50% inhibition. Usually inhibition stands for the change of the read-out against control, counted positive when it falls.

Molecules are shown by their SMILES.

In the case of `C[C@H](NS(=O)(=O)c1ccc(-c2sc(-c3nnc(C(C)(C)O)[nH]3)nc2C(=O)N2CCC(F)(F)CC2)c(Cl)c1Cl)C(F)(F)F` [Example 9/3, (S)-2,3-Dichloro-4-(4-(4,4-difluoropiperidine-1-carbonyl)-2-(5-(2-hydroxypropan-2-yl)-4H-1,2,4-triazol-3-yl)thiazol-5-yl)-N-(1,1,1-trifluoropropan-2-yl)benzenesulfonamide], the Kd in assay [1] was 1.2 nM. In addition, at full-length human RORγt, the IC50 was determined as 61 nM and the inhibition at 2 µM was found to be 104%.
As to `C[C@H](NC(=O)c1cc(-c2sc(-c3nnc(C(C)(C)O)o3)nc2C(=O)N2CCC(F)CC2)cc(C2(C)CC2)c1)C(F)(F)F` [Example 6/10, (S)-3-(4-(4-Fluoropiperidine-1-carbonyl)-2-(5-(2-hydroxypropan-2-yl)-1,3,4-oxadiazol-2-yl)thiazol-5-yl)-5-(1-methylcyclopropyl)-N-(1,1,1-trifluoropropan-2-yl)benzamide], the Kd in assay [1] is 45 nM. Further, on full-length human RORγt, the half-maximal inhibitory concentration (IC50) came to 210 nM and the inhibition at 6 µM was 101%.
As to `C[C@H](NS(=O)(=O)c1ccc(-c2sc(-c3cnn[nH]3)nc2C(=O)N2CCCC[C@@H]2C)c(Cl)c1Cl)C(F)(F)F` [Example 16, 2,3-Dichloro-4-(4-((S)-2-methylpiperidine-1-carbonyl)-2-(1H-1,2,3-triazol-5-yl)thiazol-5-yl)-N—((S)-1,1,1-trifluoropropan-2-yl)benzenesulfonamide], the Kd in assay [1] was 6.6 nM. At full-length human RORγt, the IC50 turned out to be 14 nM and the inhibition at 2 µM was found to be 100%.
The matching figures for `CCN(CC)C(=O)c1nc(-c2nnc(C(C)(C)O)[nH]2)sc1-c1ccc(C(O)(C(F)(F)F)C(F)(F)F)c(Cl)c1Cl` [Example 9, 5-(2,3-Dichloro-4-(1,1,1,3,3,3-hexafluoro-2-hydroxypropan-2-yl)phenyl)-N,N-diethyl-2-(5-(2-hydroxypropan-2-yl)-4H-1,2,4-triazol-3-yl)thiazole-4-carboxamide]: 32 nM, 120 nM and 99%.
Regarding `CC(C)(O)c1nnc(-c2nc(C(=O)N3CC(F)(F)CC3(C)C)c(-c3ccc(S(=O)(=O)NC4(C(F)F)CC4)c(F)c3Cl)s2)o1` [Example 6/22, 3-Chloro-4-(4-(4,4-difluoro-2,2-dimethylpyrrolidine-1-carbonyl)-2-(5-(2-hydroxypropan-2-yl)-1,3,4-oxadiazol-2-yl)thiazol-5-yl)-N-(1-(difluoromethyl)cyclopropyl)-2-fluorobenzenesulfonamide], in assay [1], the dissociation constant (Kd) is 1200 nM. On full-length human RORγt, the IC50 worked out at 1600 nM and the inhibition at 6 µM came to 74%.
In the case of `C[C@H](NS(=O)(=O)c1ccc(-c2sc(-c3nnc(C4(C(F)(F)F)CC4)o3)nc2C(=O)N2CCC(F)(F)CC2)c(Cl)c1Cl)C(F)(F)F` [Example 1/3, (S)-2,3-Dichloro-4-(4-(4,4-difluoropiperidine-1-carbonyl)-2-(5-(1-(trifluoromethyl)cyclopropyl)-1,3,4-oxadiazol-2-yl)thiazol-5-yl)-N-(1,1,1-trifluoropropan-2-yl)benzenesulfonamide], the Kd in assay [1] was 0.7 nM. Besides, at full-length human RORγt (0.67 μM compound concentration, read-out: RORγt (FL) Reporter Assay A, % inhibition (** at 0.67 μM)), the inhibition at 0.67 µM was found to be 103%. In addition, the IC50 at full-length human RORγt worked out at 4.5 nM.
For the compound `C[C@H](NS(=O)(=O)c1ccc(-c2sc(-c3nnc(CC(C)(C)O)o3)nc2C(=O)N2CCC(F)(F)CC2)c(Cl)c1Cl)C(F)(F)F` [Example 3, (S)-2,3-Dichloro-4-(4-(4,4-difluoropiperidine-1-carbonyl)-2-(5-(2-hydroxy-2-methylpropyl)-1,3,4-oxadiazol-2-yl)thiazol-5-yl)-N-(1,1,1-trifluoropropan-2-yl)benzenesulfonamide], the Kd in assay [1] is 1.6 nM. In addition, at full-length human RORγt, the IC50 came to 26 nM and the inhibition at 6 µM was found to be 107%.
Regarding `C[C@H](NS(=O)(=O)c1ccc(-c2sc(-c3nnc(C(C)(C)O)[nH]3)nc2C(=O)N2CC(F)(F)C[C@@H]2C)c(Cl)c1Cl)C(F)(F)F` [Example 9/2, 2,3-Dichloro-4-(4-((S)-4,4-difluoro-2-methylpyrrolidine-1-carbonyl)-2-(5-(2-hydroxypropan-2-yl)-4H-1,2,4-triazol-3-yl)thiazol-5-yl)-N—((S)-1,1,1-trifluoropropan-2-yl)benzenesulfonamide], the dissociation constant Kd in assay [1] was 0.71 nM. Besides, on full-length human RORγt, the IC50 was found to be 28 nM and the inhibition at 2 µM stood at 104%.
`CC[C@H](NS(=O)(=O)c1ccc(-c2sc(-c3nnc(CC(C)(C)C(=O)O)o3)nc2C(=O)N2CCCC[C@@H]2C)c(Cl)c1Cl)C(F)(F)F` [Example 2, 3-(5-(5-(2,3-Dichloro-4-(N—((S)-1,1,1-trifluorobutan-2-yl)sulfamoyl)phenyl)-4-((S)-2-methylpiperidine-1-carbonyl)thiazol-2-yl)-1,3,4-oxadiazol-2-yl)-2,2-dimethylpropanoic acid]: the Kd in assay [1] was 0.003 nM. On full-length human RORγt, the IC50 came to 100 nM and the inhibition at 6 µM turned out to be 104%.
Take `CC1CCN(C(=O)c2nc(-c3nnc(C(C)(C)O)o3)sc2-c2ccc(S(=O)(=O)N[C@@H](C)C(F)(F)F)c3ccccc23)CC1` [Example 4, (S)-4-(2-(5-(2-Hydroxypropan-2-yl)-1,3,4-oxadiazol-2-yl)-4-(4-methylpiperidine-1-carbonyl)thiazol-5-yl)-N-(1,1,1-trifluoropropan-2-yl)naphthalene-1-sulfonamide]: in assay [1], the Kd was 1.5 nM. At full-length human RORγt, the IC50 came out at 19 nM and the inhibition at 2 µM is 103%.
For the compound `C[C@H](NS(=O)(=O)c1ccc(-c2sc(-c3nnc(C(C)(C)O)o3)nc2C(=O)N2CCC(F)(F)C2)c(Cl)c1Cl)C(F)(F)F` [Example 6/2, (S)-2,3-Dichloro-4-(4-(3,3-difluoropyrrolidine-1-carbonyl)-2-(5-(2-hydroxypropan-2-yl)-1,3,4-oxadiazol-2-yl)thiazol-5-yl)-N-(1,1,1-trifluoropropan-2-yl)benzenesulfonamide], in assay [1], the Kd is 7.6 nM. Moreover, at full-length human RORγt, the IC50 was 38 nM and the inhibition at 6 µM was 108%.
Consider `CC[C@H](NS(=O)(=O)c1ccc(-c2sc(-c3nnc(C(C)(C)O)o3)nc2C(=O)N2CCC(F)(F)CC2)c(C(F)F)c1F)C(F)(F)F` [Example 6/3, (S)-3-(Difluoromethyl)-4-(4-(4,4-difluoropiperidine-1-carbonyl)-2-(5-(2-hydroxypropan-2-yl)-1,3,4-oxadiazol-2-yl)thiazol-5-yl)-2-fluoro-N-(1,1,1-trifluorobutan-2-yl)benzenesulfonamide], for which, in assay [1], the equilibrium dissociation constant (Kd) was 1.7 nM. For the same compound, on full-length human RORγt, the IC50 came out at 27 nM and the inhibition at 6 µM came out at 110%.
